Assay results from patent publication US11207431B2, “HDAC6 inhibitors and imaging agents” (The General Hospital Corporation, priority 2017, dated 2021).

Assays:
HDAC6 = HDAC6 (Homo sapiens (Human), UniProt Q9UBN7); details: read-out: HDAC6 IC50; comparison compound C, source not stated
HDAC8 = HDAC8 (Homo sapiens (Human), UniProt Q9BY41); experiment: IC50 values of comparison compounds B-F (Table 1B); assay type: biochemical; details: comparison compound C, source not stated
Description: (§1) [drawing 62] (see e.g., WO 2015/058106; Fluorescent-intensity-based enzymatic assay, multiple runs; duplicates);

HDAC1 = HDAC1 (Homo sapiens (Human), UniProt Q13547); experiment: IC50 values of comparison compounds B-F (Table 1B); assay type: biochemical; details: comparison compound C, source not stated
Chain of HDAC1 (Q13547 whole entry): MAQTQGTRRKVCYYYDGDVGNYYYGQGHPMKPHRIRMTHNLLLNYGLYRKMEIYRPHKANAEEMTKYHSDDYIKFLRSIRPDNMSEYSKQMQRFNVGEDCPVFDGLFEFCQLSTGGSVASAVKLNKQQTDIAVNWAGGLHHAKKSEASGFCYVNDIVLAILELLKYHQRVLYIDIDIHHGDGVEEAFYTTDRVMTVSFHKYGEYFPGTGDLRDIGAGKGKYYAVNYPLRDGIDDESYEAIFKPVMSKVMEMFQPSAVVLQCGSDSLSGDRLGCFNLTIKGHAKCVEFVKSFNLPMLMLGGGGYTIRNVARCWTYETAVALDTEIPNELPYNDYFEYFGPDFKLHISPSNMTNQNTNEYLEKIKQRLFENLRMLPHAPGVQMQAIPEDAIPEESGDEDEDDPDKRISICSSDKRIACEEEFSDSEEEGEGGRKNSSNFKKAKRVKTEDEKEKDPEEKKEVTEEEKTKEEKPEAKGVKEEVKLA
Description: as §1

HDAC10 = HDAC10 (Homo sapiens (Human), UniProt Q969S8); experiment: IC50 values of comparison compounds B-F (Table 1B); assay type: biochemical; details: comparison compound C, source not stated
Chain of HDAC10 (Q969S8 whole entry, species assumed): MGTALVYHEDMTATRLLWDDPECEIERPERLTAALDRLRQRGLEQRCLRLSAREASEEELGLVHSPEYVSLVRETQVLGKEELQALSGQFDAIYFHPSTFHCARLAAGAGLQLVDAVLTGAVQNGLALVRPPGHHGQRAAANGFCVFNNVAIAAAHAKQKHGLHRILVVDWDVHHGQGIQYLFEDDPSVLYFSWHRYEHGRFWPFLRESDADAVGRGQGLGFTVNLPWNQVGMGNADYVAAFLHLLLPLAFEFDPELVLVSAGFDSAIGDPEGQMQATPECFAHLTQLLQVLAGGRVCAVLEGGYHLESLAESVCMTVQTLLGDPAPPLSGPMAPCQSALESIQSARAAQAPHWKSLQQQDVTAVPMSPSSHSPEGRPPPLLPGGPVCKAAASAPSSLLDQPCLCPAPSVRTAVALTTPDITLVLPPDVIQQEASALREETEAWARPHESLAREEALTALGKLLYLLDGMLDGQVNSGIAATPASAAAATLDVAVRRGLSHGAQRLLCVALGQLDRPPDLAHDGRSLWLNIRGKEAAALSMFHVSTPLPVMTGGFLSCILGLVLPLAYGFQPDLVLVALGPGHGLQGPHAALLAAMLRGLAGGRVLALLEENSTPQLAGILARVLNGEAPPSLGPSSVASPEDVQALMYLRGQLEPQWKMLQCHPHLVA
Description: as §1

HDAC5 = HDAC5 (Homo sapiens (Human), UniProt Q9UQL6); experiment: IC50 values of comparison compounds B-F (Table 1B); assay type: biochemical; details: comparison compound C, source not stated
Description: as §1

HDAC2 = HDAC2 (Homo sapiens (Human), UniProt Q92769); experiment: IC50 values of comparison compounds B-F (Table 1B); assay type: biochemical; details: comparison compound C, source not stated
Chain of HDAC2 (Q92769 whole entry): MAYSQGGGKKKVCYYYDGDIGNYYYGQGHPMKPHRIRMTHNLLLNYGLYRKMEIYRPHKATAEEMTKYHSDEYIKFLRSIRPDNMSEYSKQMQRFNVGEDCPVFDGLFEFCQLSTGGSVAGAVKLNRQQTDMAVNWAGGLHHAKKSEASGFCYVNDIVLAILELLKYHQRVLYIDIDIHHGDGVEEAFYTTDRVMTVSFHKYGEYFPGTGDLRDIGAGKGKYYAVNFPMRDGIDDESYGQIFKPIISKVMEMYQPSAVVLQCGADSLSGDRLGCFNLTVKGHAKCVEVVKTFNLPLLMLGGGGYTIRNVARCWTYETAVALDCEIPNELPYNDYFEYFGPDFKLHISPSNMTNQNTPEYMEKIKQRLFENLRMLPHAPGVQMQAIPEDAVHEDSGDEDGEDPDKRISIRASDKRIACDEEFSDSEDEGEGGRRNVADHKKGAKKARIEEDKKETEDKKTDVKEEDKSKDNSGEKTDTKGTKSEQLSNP
Description: as §1

HDAC4 = HDAC4 (Homo sapiens (Human), UniProt P56524); experiment: IC50 values of comparison compounds B-F (Table 1B); assay type: biochemical; details: comparison compound C, source not stated
Chain of HDAC4 (P56524 whole entry): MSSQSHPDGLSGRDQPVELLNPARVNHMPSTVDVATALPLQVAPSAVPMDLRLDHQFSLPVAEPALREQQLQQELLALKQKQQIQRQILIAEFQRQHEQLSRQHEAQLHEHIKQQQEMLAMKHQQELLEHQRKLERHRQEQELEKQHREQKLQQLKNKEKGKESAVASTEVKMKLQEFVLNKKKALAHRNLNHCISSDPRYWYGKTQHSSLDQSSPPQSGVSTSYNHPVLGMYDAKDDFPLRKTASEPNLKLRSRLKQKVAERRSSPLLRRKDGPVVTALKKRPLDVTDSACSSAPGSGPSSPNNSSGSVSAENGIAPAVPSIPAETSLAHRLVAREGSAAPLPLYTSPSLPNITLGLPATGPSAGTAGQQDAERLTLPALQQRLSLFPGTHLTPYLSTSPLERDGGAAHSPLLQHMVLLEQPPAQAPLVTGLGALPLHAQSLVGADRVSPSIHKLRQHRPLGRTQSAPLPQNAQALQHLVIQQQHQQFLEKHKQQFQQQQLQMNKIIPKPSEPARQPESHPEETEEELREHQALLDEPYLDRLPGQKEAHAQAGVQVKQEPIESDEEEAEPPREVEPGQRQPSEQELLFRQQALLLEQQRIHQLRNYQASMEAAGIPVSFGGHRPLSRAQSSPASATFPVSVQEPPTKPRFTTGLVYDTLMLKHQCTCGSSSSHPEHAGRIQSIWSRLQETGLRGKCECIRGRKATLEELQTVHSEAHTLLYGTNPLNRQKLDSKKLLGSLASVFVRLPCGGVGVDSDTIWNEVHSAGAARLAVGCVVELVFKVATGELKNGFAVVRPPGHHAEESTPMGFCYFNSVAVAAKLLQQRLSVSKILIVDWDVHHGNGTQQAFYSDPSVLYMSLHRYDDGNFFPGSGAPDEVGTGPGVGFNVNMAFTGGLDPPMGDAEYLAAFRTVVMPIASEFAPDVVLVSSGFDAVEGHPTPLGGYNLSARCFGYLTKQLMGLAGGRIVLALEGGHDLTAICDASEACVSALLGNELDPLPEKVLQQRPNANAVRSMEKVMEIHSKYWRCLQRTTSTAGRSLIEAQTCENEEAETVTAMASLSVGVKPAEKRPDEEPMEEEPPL
Description: as §1

HDAC3 = HDAC3 (Homo sapiens (Human), UniProt O15379); experiment: IC50 values of comparison compounds B-F (Table 1B); assay type: biochemical; details: comparison compound C, source not stated
Chain of HDAC3 (O15379 whole entry): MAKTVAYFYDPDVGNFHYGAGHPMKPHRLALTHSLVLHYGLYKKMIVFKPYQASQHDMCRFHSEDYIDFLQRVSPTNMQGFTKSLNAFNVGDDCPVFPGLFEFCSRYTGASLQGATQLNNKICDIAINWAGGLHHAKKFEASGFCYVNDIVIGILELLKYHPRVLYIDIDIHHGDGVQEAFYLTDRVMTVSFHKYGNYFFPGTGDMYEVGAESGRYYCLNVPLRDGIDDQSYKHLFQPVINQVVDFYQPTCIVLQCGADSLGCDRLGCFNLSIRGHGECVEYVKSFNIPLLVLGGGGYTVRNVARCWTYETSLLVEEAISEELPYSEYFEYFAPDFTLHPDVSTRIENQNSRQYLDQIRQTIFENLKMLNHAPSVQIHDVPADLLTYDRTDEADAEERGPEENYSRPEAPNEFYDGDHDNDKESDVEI
Chain of HDAC3 (Q9Y618 395-489 partner): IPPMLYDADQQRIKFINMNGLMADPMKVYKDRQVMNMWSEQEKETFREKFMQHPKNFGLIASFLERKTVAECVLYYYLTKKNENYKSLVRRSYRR
Description: as §1

HDAC9 = HDAC9 (Homo sapiens (Human), UniProt Q9UKV0); experiment: IC50 values of comparison compounds B-F (Table 1B); assay type: biochemical; details: comparison compound C, source not stated
Chain of HDAC9 (Q9UKV0 whole entry, species assumed): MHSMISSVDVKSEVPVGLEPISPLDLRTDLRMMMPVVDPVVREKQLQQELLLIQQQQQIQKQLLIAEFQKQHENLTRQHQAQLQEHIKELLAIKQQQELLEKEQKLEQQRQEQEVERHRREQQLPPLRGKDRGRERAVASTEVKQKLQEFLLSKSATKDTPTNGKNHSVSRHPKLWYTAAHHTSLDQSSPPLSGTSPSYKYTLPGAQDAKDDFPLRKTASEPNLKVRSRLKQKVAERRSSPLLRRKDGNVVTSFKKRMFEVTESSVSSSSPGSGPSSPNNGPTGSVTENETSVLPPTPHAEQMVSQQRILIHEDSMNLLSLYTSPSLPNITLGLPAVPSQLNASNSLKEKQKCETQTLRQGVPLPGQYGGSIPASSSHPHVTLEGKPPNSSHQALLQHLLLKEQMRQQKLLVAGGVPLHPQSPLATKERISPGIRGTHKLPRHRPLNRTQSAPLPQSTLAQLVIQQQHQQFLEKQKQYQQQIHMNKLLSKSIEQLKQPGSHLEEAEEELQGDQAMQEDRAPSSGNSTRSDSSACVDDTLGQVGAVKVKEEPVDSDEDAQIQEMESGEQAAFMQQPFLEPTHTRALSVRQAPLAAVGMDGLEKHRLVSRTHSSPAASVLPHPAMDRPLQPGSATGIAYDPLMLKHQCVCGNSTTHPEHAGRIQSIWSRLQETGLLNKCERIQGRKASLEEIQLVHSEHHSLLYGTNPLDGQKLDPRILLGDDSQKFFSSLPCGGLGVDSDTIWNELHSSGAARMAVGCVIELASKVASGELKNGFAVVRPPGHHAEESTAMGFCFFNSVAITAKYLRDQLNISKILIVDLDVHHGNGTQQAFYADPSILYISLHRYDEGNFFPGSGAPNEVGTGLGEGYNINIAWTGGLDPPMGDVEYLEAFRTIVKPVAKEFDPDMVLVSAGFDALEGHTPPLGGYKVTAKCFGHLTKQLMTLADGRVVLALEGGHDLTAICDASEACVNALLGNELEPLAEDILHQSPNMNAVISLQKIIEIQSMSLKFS
Description: as §1

HDAC11 = HDAC11 (Homo sapiens (Human), UniProt Q96DB2); experiment: IC50 values of comparison compounds B-F (Table 1B); assay type: biochemical; details: comparison compound C, source not stated
Chain of HDAC11 (Q96DB2 whole entry, species assumed): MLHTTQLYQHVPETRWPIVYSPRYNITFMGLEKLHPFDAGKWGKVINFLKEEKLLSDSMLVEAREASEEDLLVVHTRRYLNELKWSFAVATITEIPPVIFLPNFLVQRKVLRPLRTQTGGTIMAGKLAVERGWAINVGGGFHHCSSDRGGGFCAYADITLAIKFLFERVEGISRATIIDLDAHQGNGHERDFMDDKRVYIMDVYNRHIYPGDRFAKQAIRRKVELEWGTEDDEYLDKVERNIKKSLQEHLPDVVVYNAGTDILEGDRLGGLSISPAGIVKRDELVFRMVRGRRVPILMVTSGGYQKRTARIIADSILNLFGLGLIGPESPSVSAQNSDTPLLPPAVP
Description: as §1

Chain of HDAC8 (Q9BY41 whole entry): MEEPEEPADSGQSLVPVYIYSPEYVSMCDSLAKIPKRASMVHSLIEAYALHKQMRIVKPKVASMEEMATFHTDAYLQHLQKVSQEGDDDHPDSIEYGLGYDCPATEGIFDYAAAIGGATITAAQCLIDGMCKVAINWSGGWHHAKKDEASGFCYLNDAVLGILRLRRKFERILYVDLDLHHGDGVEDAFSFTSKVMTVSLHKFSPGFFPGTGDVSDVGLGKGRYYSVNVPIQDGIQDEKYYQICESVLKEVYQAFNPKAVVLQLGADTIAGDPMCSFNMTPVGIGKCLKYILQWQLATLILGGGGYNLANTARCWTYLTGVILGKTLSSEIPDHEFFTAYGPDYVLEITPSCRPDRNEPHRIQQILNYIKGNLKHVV

CN(c1ncc(C(=O)NO)cn1)C12CC3CC(CC(C3)C1)C2 [C]
IC50 (HDAC6): 33 nM | IC50 (HDAC8): 364 nM | IC50 (HDAC1): 20 nM | IC50 (HDAC10): 25 nM | IC50 (HDAC5): 121 nM | IC50 (HDAC2): 65 nM | IC50 (HDAC4): 34 nM | IC50 (HDAC3): 24 nM | IC50 (HDAC9): 52 nM | IC50 (HDAC11): 3600 nM
